From patent EP0063525A1, “Dibenzazepine tetracyclic derivatives, process for their preparation and pharmaceutical compositions containing them” (CENTRE NATIONAL DE LA RECHERCHE SCIENTIFIQUE (CNRS), priority 1981, dated 1982)
Where two headings read alike, the source gives them in different places.

How the values were obtained:
[1] = acute toxicity in the mouse, intraperitoneal; assay type: in vivo, Souris; settings: mouse, in vivo, ip, voie intrapéritonéale; for LD50 at 48 h: souris femelles, read-out: DL 50; for mortality at 48 h: read-out: Mortalité %
Source text: (§1) Les produits ont été administrés par voie intrapéritonéale à des souris femelles dont le poids variait de 18 à 30 g.
(§2) Les animaux injectés ont été maintenus dans une salle thermostatée, nourris et abreuvés à volonté.
(§3) La mortalité a été relevée à 1 heure, 4 heures, 24 heures et 48 heures.

[2] = system: souris femelles; experiment: acute toxicity in the mouse, intraperitoneal; assay type: in vivo; settings: voie intrapéritonéale, dead mice of the group
Source text: as §1, §2, §3

[3] = system: Souris; experiment: antireserpine activity: reserpine hypothermia; assay type: in vivo; settings: réserpine 5 mg/kg i.p. 17 h before
Method in brief: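 Mice in groups of 4 given reserpine 5 mg/kg i.p.; 17 hours later rectal temperature taken by thermocouple and test substance or solvent given i.p. Temperature measured hourly for 4 hours. Reported as mean temperature changes at 1, 2, 3 and 4 hours, their 4-hour sum, and percent rise versus solvent controls.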

[4] = system: Souris; experiment: tetrabenazine hypothermia; assay type: in vivo
Method: (§4) Ce test permet de révéler également une activité antidépressive avec l'avantage d'une lecture plus rapide qu'avec la réserpine.
Les produits sont injectés 30 minutes avant l'administration de tétrabénazine.
Les températures sont relevées aux temps : 0, 30 minutes, 60 minutes, 90 minutes et 120 minutes.
(§5) Les souris sont réparties par lots de 5.
Les températures sont relevées avant l'injection de tétrabénazine, 30 minutes, 60 minutes, 90 minutes et 120 minutes après.
(§6) Le lot témoin comprend 20 souris.

[5] = system: Souris; experiment: tetrabenazine ptosis; assay type: in vivo; settings: for Ptosis 30 minutes / Ptosis 60 minutes / Ptosis 90 minutes / Ptosis 120 minutes: score 0-4 per eye
Method: as §4, §5
Le ptosis est noté avant l'injection de tétrabénazine, 30 minutes, 60 minutes, 90 minutes et 120 minutes après.
On a adopté la notation suivante : • - 0 : pour un oeil ouvert, • - 1 : pour un oeil fermé au quart, • - 2 : pour un oeil fermé à moitié, • - 3 : pour un oeil fermé aux trois-quarts, • - 4 : pour un oeil fermé complètement.
as §6

[6] = system: chiens anesthésiés; experiment: cardiovascular toxicity in the anaesthetised dog, slow perfusion; assay type: in vivo, Chien; settings: chiens anesthésiés, perfusion lente
Method: L'étude du composé 2 a été effectuée sur 7 chiens anesthésiés à des doses allant de 4 à 20 mg/kg en perfusion lente.

[7] = product i.p. 200 mg/kg 30 min before tétrabénazine 32 mg/kg i.v.
[8] = ip, 4 h, product i.p. 50 mg/kg, read-out: % d'augmentation par rapport aux témoins
[9] = ip, 2 h, hypothermie, product i.p. 50 mg/kg 30 min before tétrabénazine 32 mg/kg i.v., read-out: % de protection
[10] = product i.p. 50 mg/kg 30 min before tétrabénazine 32 mg/kg i.v.
[11] = ip, 2 h, ptosis, product i.p. 50 mg/kg 30 min before tétrabénazine 32 mg/kg i.v., read-out: % de protection
[12] = product i.p. 25 mg/kg 30 min before tétrabénazine 32 mg/kg i.v.

CN(C)CCN1c2ccccc2-c2c(-c3ccccc3)nn(-c3ccccc3)c2-c2ccccc21 [compound 13]
LD50 at 48 h [1]: 350 mg/kg | mortality at 48 h ([1]; 50 mg/kg): 0% | mortality at 48 h ([1]; 100 mg/kg): 0% | mortality at 48 h ([1]; 250 mg/kg): 0% | mortality at 48 h ([1]; 400 mg/kg): 60% | mortality at 48 h ([1]; 750 mg/kg): 100% | Mortalité en 1 heure ([2]; 50 mg/kg): 0 | Mortalité en 48 h. ([2]; 50 mg/kg): 0 | Mortalité en 1 heure ([2]; 100 mg/kg): 0 | Mortalité en 48 h. ([2]; 100 mg/kg): 0 | Mortalité en 1 heure ([2]; 250 mg/kg): 0 | Mortalité en 48 h. ([2]; 250 mg/kg): 0 | Mortalité en 1 heure ([2]; 400 mg/kg): 3 | Mortalité en 48 heures ([2]; 400 mg/kg): 3 | Mortalité en 1 heure ([2]; 750 mg/kg): 2 | Mortalité en 48 h. ([2]; 750 mg/kg): 5 | change in vivo at 200 mg/kg ([3]; ip, 4 h, product i.p. 200 mg/kg, read-out: % d'augmentation par rapport aux témoins): 70% | variation de température T=1h ([3]; product i.p. 200 mg/kg): +1,9 | variation de température T= 2h ([3]; product i.p. 200 mg/kg): +1 | variation de température T=3h ([3]; product i.p. 200 mg/kg): +0,5 | variation de température T=4h ([3]; product i.p. 200 mg/kg): 0 | inhibition in vivo at 200 mg/kg ([4]; ip, 2 h, hypothermie, product i.p. 200 mg/kg 30 min before tétrabénazine 32 mg/kg i.v., read-out: % de protection): 15% | Température après tétrabénazine 30 minutes [4, 7]: -3,4 | Température après tétrabénazine 60 minutes [4, 7]: -1,9 | Température après tétrabénazine 90 minutes [4, 7]: -1,1 | Température après tétrabénazine 120 minutes [4, 7]: -0,9 | Température après tétrabénazine Total [4, 7]: -7,3 | inhibition in vivo at 200 mg/kg ([5]; ip, 2 h, ptosis, product i.p. 200 mg/kg 30 min before tétrabénazine 32 mg/kg i.v., read-out: % de protection): 14% | Ptosis Total [5, 7]: 25,9 | Ptosis 30 minutes [5, 7]: 4 | Ptosis 60 minutes [5, 7]: 6,8 | Ptosis 90 minutes [5, 7]: 7,6 | Ptosis 120 minutes [5, 7]: 7,5

CN(C)CCCN1c2ccccc2-c2onc(-c3ccccc3)c2-c2ccccc21 [compound 18]
LD50 at 48 h [1]: 225 mg/kg | mortality at 48 h ([1]; 50 mg/kg): 0% | mortality at 48 h ([1]; 100 mg/kg): 0% | mortality at 48 h ([1]; 150 mg/kg): 0% | mortality at 48 h ([1]; 200 mg/kg): 100% | mortality at 48 h ([1]; 250 mg/kg): 100% | Mortalité en 1 heure ([2]; 50 mg/kg): 0 | Mortalité en 48 h. ([2]; 50 mg/kg): 0 | Mortalité en 1 heure ([2]; 100 mg/kg): 0 | Mortalité en 48 h. ([2]; 100 mg/kg): 0 | Mortalité en 1 heure ([2]; 150 mg/kg): 0 | Mortalité en 48 h. ([2]; 150 mg/kg): 0 | Mortalité en 1 heure ([2]; 200 mg/kg): 5 | Mortalité en 48 h. ([2]; 200 mg/kg): 5 | Mortalité en 1 heure ([2]; 250 mg/kg): 4 | Mortalité en 48 h. ([2]; 250 mg/kg): 5 | change in vivo at 50 mg/kg [3, 8]: 25% | change in vivo at 150 mg/kg ([3]; ip, 4 h, product i.p. 150 mg/kg, read-out: % d'augmentation par rapport aux témoins): 175% | inhibition in vivo at 50 mg/kg [4, 9]: 8% | Température après tétrabénazine 30 minutes [4, 10]: -3,1 | Température après tétrabénazine 60 minutes [4, 10]: -1,8 | Température après tétrabénazine 90 minutes [4, 10]: -1,9 | Température après tétrabénazine 120 minutes [4, 10]: -1,1 | Température après tétrabénazine Total [4, 10]: -7,9 | inhibition in vivo at 50 mg/kg [5, 11]: 24% | Ptosis Total [5, 10]: 23 | Ptosis 30 minutes [5, 10]: 3,6 | Ptosis 60 minutes [5, 10]: 5,8 | Ptosis 90 minutes [5, 10]: 6,4 | Ptosis 120 minutes [5, 10]: 7,2

CN(C)CCN1c2ccccc2C=Cc2ccccc21 [compound 20, (β-diméthylaminoéthyl)-5 dibenzo [b,f] 5H azépine, reference compound]
LD50 at 48 h [1]: 75 mg/kg | mortality at 48 h ([1]; 50 mg/kg): 0% | mortality at 48 h ([1]; 100 mg/kg): 60% | mortality at 48 h ([1]; 200 mg/kg): 100% | Mortalité en 1 heure ([2]; 50 mg/kg): 0 | Mortalité en 48 h. ([2]; 50 mg/kg): 0 | Mortalité en 1 heure ([2]; 100 mg/kg): 3 | Mortalité en 48 h. ([2]; 100 mg/kg): 3 | Mortalité en 1 heure ([2]; 200 mg/kg): 5 | Mortalité en 48 h. ([2]; 200 mg/kg): 5 | change in vivo at 50 mg/kg [3, 8]: 440% | Augmentation de température en 4 h ([3]; product i.p. 50 mg/kg): +10,8 | variation de température T= 2h ([3]; product i.p. 50 mg/kg): +2,7 | variation de température T=3h ([3]; product i.p. 50 mg/kg): +2 | variation de température T=4h ([3]; product i.p. 50 mg/kg): +1 | inhibition in vivo at 50 mg/kg [4, 9]: 46% | Température après tétrabénazine 30 minutes [4, 10]: -3,1 | Température après tétrabénazine 60 minutes [4, 10]: -0,2 | Température après tétrabénazine 90 minutes [4, 10]: -0,3 | Température après tétrabénazine 120 minutes [4, 10]: -1 | Température après tétrabénazine Total [4, 10]: -4,6 | inhibition in vivo at 50 mg/kg [5, 11]: 60% | Ptosis Total [5, 10]: 12,2 | Ptosis 30 minutes [5, 10]: 2,2 | Ptosis 60 minutes [5, 10]: 3,4 | Ptosis 90 minutes [5, 10]: 3,2 | Ptosis 120 minutes [5, 10]: 3,6

CC(CN(C)C)CN1c2ccccc2C=Cc2ccccc21 (stereo not drawn) [compound 22, (méthyl-2 diméthylamino-3 propyl)-5 dibenzo [b,f] 5H azépine, reference compound]
LD50 at 48 h [1]: 75 mg/kg | mortality at 48 h ([1]; 25 mg/kg): 0% | mortality at 48 h ([1]; 50 mg/kg): 20% | mortality at 48 h ([1]; 100 mg/kg): 100% | Mortalité en 1 heure ([2]; 25 mg/kg): 0 | Mortalité en 48 heures ([2]; 25 mg/kg): 0 | Mortalité en 1 heure ([2]; 50 mg/kg): 0 | Mortalité en 48 h. ([2]; 50 mg/kg): 1 | Mortalité en 1 heure ([2]; 100 mg/kg): 4 | Mortalité en 48 h. ([2]; 100 mg/kg): 5 | change in vivo at 25 mg/kg ([3]; ip, 4 h, product i.p. 25 mg/kg, read-out: % d'augmentation par rapport aux témoins): 85% | variation de température T= 2h ([3]; product i.p. 25 mg/kg): +0,5 | variation de température T=3h ([3]; product i.p. 25 mg/kg): +1 | variation de température T=4h ([3]; product i.p. 25 mg/kg): +0,4 | inhibition in vivo at 25 mg/kg ([4]; ip, 2 h, hypothermie, product i.p. 25 mg/kg 30 min before tétrabénazine 32 mg/kg i.v., read-out: % de protection): 50% | Température après tétrabénazine 30 minutes [4, 12]: -3,5 | Température après tétrabénazine 60 minutes [4, 12]: -0,1 | Température après tétrabénazine 90 minutes [4, 12]: -0,6 | Température après tétrabénazine 120 minutes [4, 12]: -0,1 | Température après tétrabénazine Total [4, 12]: -4,3 | inhibition in vivo at 25 mg/kg ([5]; ip, 2 h, ptosis, product i.p. 25 mg/kg 30 min before tétrabénazine 32 mg/kg i.v., read-out: % de protection): 11% | Ptosis Total [5, 12]: 26,8 | Ptosis 30 minutes [5, 12]: 5,6 | Ptosis 60 minutes [5, 12]: 6,8 | Ptosis 90 minutes [5, 12]: 6,8 | Ptosis 120 minutes [5, 12]: 7,6

CN(C)CCCN1c2ccccc2CCc2ccccc21 [imipramine, reference compound]
retour vers les valeurs de départ des paramètres enregistrés, dès l'arrêt de l'injection [6]: n'a pas été constatée
